# Test results published in US11993604B2, “Substituted pyrazolo[4,3-H]quinazolines as protein kinase inhibitors” (SHENGKE PHARMACEUTICALS (JIANGSU) LTD., priority 2017, dated 2024).
# Key:
# [1] = target: CDK6/cyclin D1 (Homo sapiens, UniProt Q00534); experiment: Biochemical kinase inhibition test, CDK6/cyclin D1 (similar method); details: for selectivity for CDK6/cyclin D1 relative to CDK4/cyclin D1 (enzyme inhibitory activity): CDK6/cyclin D1 versus CDK4/cyclin D1; for IC50: three-fold serial dilution from 10 μM, 10 μM ATP, read-out: CDK6/D1 (nM), enzyme inhibitory activity IC50
# Sequence of CDK6/cyclin D1 (Q00534 whole entry, species assumed): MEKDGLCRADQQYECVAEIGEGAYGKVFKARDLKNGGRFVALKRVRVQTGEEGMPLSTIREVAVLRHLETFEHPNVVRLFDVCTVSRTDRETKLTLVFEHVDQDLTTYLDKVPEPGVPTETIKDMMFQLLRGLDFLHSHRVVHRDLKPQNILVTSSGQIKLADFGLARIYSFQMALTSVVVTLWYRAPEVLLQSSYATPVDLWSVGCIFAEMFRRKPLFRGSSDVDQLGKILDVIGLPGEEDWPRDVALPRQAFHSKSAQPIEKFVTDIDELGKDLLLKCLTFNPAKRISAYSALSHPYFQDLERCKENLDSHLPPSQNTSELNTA
# Sequence of CDK6/cyclin D1 (P24385 whole entry partner, species assumed): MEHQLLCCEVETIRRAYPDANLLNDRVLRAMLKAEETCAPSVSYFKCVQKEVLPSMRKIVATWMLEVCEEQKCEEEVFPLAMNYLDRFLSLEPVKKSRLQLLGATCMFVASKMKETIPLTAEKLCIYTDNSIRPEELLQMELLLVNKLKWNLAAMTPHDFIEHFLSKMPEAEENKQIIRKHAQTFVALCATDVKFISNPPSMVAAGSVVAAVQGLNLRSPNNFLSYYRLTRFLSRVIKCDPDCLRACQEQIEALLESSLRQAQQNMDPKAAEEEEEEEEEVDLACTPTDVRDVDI
# Procedure: Potency determination of biochemical kinase inhibition test. Kinase activity test and IC50 determination. Firstly, 10 ng of recombinant CDK4/Cyclin D1 (Life Technologies PV4204) was diluted in kinase buffer (20 mM Tris pH 7.5, 10 mM MgCl2, 0.01% NP-40, 2 mM DTT), and was incubated with inhibitors at the indicated concentration at room temperature for 30 minutes. The kinase reaction was initiated by adding […] (1.5 μM) of recombinant retinoblastoma protein, 5 μM ATP and 10μ Ci γ-32P-ATP. The reaction was incubated at 30° C. for 20 minutes, and was terminated by adding 2× Laemmli sample buffer, heated at 95° C. for three minutes, and the resulting solution was dissolved with 12% acrylamide SDS-PAGE and autoradiographed. A densitometer (Bio-Rad) was used to quantify the corresponding phosphorylated substrate protein bands. The resulting density values were plotted as a function of the log drug concentration using Prism 4 Graphpad software. IC50 values were determined by plotting a non-linear regression curve with a variable slope.
# The inhibitory activity of the compounds disclosed herein against CDK6/cyclin D1 was tested by a similar method.
# The compounds were tested in a three-fold serial dilution from the starting concentration of 10 μM, over 10-fold of IC50. The control compound, staurosporine, was tested in a four-fold serial dilution from the starting concentration of 20 μM, over 10-fold of IC50. These reactions took place in the presence of 10 μM ATP.
# [2] = target: T1, recombinant CDK4/Cyclin D1 (Homo sapiens, UniProt P11802); experiment: Biochemical kinase inhibition test, CDK4/Cyclin D1 (32P-ATP, retinoblastoma protein substrate); details: three-fold serial dilution from 10 μM; 10 μM ATP; read-out: CDK4/D1 (nM), enzyme inhibitory activity IC50
# T1 construct: purchased Life Technologies PV4204
# T1 sequence (P11802 whole entry): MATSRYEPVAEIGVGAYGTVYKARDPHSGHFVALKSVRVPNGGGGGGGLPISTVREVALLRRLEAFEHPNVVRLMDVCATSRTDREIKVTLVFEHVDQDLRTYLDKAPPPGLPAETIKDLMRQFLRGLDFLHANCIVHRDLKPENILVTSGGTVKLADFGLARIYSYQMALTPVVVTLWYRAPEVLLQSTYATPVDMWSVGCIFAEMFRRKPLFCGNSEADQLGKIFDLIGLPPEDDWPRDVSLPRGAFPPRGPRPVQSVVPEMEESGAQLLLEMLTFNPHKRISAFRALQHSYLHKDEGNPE
# T1 sequence (P24385 whole entry partner): as the sequence (P24385 whole entry partner, species assumed) above
SMILES,selectivity for CDK6/cyclin D1 relative to CDK4/cyclin D1 (enzyme inhibitory activity) [1],IC50 [1] [nM],IC50 [2] [nM]
CCN1CCN(c2ccc(Nc3ncc4ccc5cnn(CC)c5c4n3)nc2)CC1 [Compound I-48],about 3 times,5 to 10,10 to 20
CCN1CCN(c2cnc(Nc3ncc4ccc5cnn(CC)c5c4n3)cc2C)CC1 [Compound I-49],about 2 times,10 to 20,20 to 50
CCn1ncc2ccc3cnc(Nc4ccc(N5CCOCC5)cn4)nc3c21 [Compound I-50],about 3 times,5 to 10,10 to 20
CCn1ncc2ccc3cnc(Nc4cc(C)c(N5CCN(C)CC5)cn4)nc3c21 [Compound I-51],about 2 times,10 to 20,20 to 50
CCn1ncc2ccc3cnc(Nc4cc(C)c(N5CCOCC5)cn4)nc3c21 [Compound I-52],,10 to 20,10 to 20
Cl.c1cc(Nc2ncc3ccc4cnn(C5CC5)c4c3n2)ncc1N1CCNCC1 [Compound I-53],about 2 times,5 to 10,10 to 20
Cl.Fc1cc(Nc2ncc3ccc4cnn(C5CC5)c4c3n2)ncc1N1CCNCC1 [Compound I-54],about 2 times,10 to 20,20 to 50
Cc1cc(Nc2ncc3ccc4cnn(C5CC5)c4c3n2)ncc1N1CCN(C)CC1 [Compound I-55],about 2 times,10 to 20,20 to 50
CCN1CCN(c2ccc(Nc3ncc4ccc5cnn(C6CC6)c5c4n3)nc2)CC1 [Compound I-56],about 3 times,5 to 10,10 to 20
CCN1CCN(c2cnc(Nc3ncc4ccc5cnn(C6CC6)c5c4n3)cc2C)CC1 [Compound I-57],,10 to 20,10 to 20
c1cc(Nc2ncc3ccc4cnn(C5CC5)c4c3n2)ncc1N1CCOCC1 [Compound I-58],about 3 times,5 to 10,10 to 20
Cc1cc(Nc2ncc3ccc4cnn(C5CC5)c4c3n2)ncc1N1CCOCC1 [Compound I-59],,10 to 20,10 to 20
CC1CN(c2ccc(Nc3ncc4ccc5cnn(C6CC6)c5c4n3)nc2)CCO1 (stereo not drawn) [Compound I-60],,10 to 20,10 to 20
CC(C)n1ncc2c(Br)cc3cnc(Nc4ccc(N5CCNCC5)cn4)nc3c21 [Compound I-61],,10 to 20,10 to 20
CC(C)n1ncc2c(Br)cc3cnc(Nc4cc(F)c(N5CCNCC5)cn4)nc3c21.Cl [Compound I-62],about 2 times,10 to 20,20 to 50
CC(C)n1ncc2c(Br)cc3cnc(Nc4ccc(N5CCN(C)CC5)cn4)nc3c21 [Compound I-63],,10 to 20,10 to 20
CCN1CCN(c2ccc(Nc3ncc4cc(Br)c5cnn(C(C)C)c5c4n3)nc2)CC1 [Compound I-64],,10 to 20,10 to 20
CC(C)n1ncc2c(Br)cc3cnc(Nc4ccc(N5CCOCC5)cn4)nc3c21 [Compound I-65],,10 to 20,10 to 20

SMILES,selectivity for CDK6/cyclin D1 relative to CDK4/cyclin D1 (enzyme inhibitory activity) [1],IC50 [1] [nM],IC50 [2] [nM]
Cc1cc2cnc(Nc3ccc(N4CCNCC4)cn3)nc2c2c1cnn2C(C)C.Cl [Compound I-66],about 3 times,1 to 5,10 to 20
Cc1cc2cnc(Nc3cc(F)c(N4CCNCC4)cn3)nc2c2c1cnn2C(C)C.Cl [Compound I-67],about 2 times,10 to 20,20 to 50
Cc1cc2cnc(Nc3ccc(N4CCN(C)CC4)cn3)nc2c2c1cnn2C(C)C [Compound I-68],,1 to 5,10 to 20
CCN1CCN(c2ccc(Nc3ncc4cc(C)c5cnn(C(C)C)c5c4n3)nc2)CC1 [Compound I-69],,1 to 5,10 to 20
Cc1cc2cnc(Nc3ccc(N4CCOCC4)cn3)nc2c2c1cnn2C(C)C [Compound I-70],,10 to 20,10 to 20
CC(C)n1ncc2c(C#N)cc3cnc(Nc4ccc(N5CCNCC5)cn4)nc3c21.Cl [Compound I-71],about 3 times,1 to 5,10 to 20
CC(C)n1ncc2c(C#N)cc3cnc(Nc4cc(F)c(N5CCNCC5)cn4)nc3c21.Cl [Compound I-72],about 2 times,10 to 20,20 to 50
CCN1CCN(c2ccc(Nc3ncc4cc(C#N)c5cnn(C(C)C)c5c4n3)nc2)CC1 [Compound I-73],about 3 times,1 to 5,10 to 20
CC(C)n1ncc2c(C#N)cc3cnc(Nc4ccc(N5CCOCC5)cn4)nc3c21 [Compound I-74],about 3 times,1 to 5,10 to 20
CC(=O)c1cc2cnc(Nc3ccc(N4CCNCC4)cn3)nc2c2c1cnn2C(C)C [Compound I-75],,< 1,1 to 5
CC(=O)c1cc2cnc(Nc3cc(F)c(N4CCNCC4)cn3)nc2c2c1cnn2C(C)C.Cl [Compound I-76],about 2 times,5 to 10,10 to 20
CC(=O)c1cc2cnc(Nc3ccc(N4CCN(C)CC4)cn3)nc2c2c1cnn2C(C)C [Compound I-77],,< 1,5 to 10
CCN1CCN(c2ccc(Nc3ncc4cc(C(C)=O)c5cnn(C(C)C)c5c4n3)nc2)CC1 [Compound I-78],,< 1,1 to 5
CC(=O)c1cc2cnc(Nc3ccc(N4CCOCC4)cn3)nc2c2c1cnn2C(C)C [Compound I-79],,< 1,5 to 10
COc1cc(OC)cc(-c2cc3cnc(Nc4ccc(N5CCNCC5)cn4)nc3c3c2cnn3C(C)C)c1.Cl [Compound I-80],about 3 times,1 to 5,5 to 10
CCN1CCN(c2ccc(Nc3ncc4cc(-c5cc(OC)cc(OC)c5)c5cnn(C(C)C)c5c4n3)nc2)CC1 [Compound I-81],about 3 times,1 to 5,5 to 10
COc1cc(OC)cc(-c2cc3cnc(Nc4ccc(N5CCOCC5)cn4)nc3c3c2cnn3C(C)C)c1 [Compound I-82],about 3 times,1 to 5,5 to 10
